These results are taken from patent publication US20230210866A1 (priority 2020, published 2023).

Several values for one entry are separate records, joined by “and”; a condition that tells them apart may be missing. Equal entries are not always repeated. Where two headings read alike, the source gives them in different places.

In series [1] the test system is SARS-CoV-2 virus. Description: Vero E6 cells infected by SARS-CoV-2, viral infectious titre in culture supernatant. As to conditions: monotherapy. Type of series: cell-based. As to the method:
The viral production relative to each of the concentrations of molecules has been determined and is shown with respect to the viral production from infected cells or HAE under the same conditions but untreated. The median inhibitory concentrations (IC50) were determined for each treatment condition.
The Vero E6 (ATCC CRL-1586) cells were cultivated in medium DMEM 4.5 g/l of glucose, supplemented by L-glutamine and penicillin/streptomycin and 10% inactivated foetal calf serum, at 37° C., 5% CO2.
In order to produce the infections, the cells were rinsed twice by the medium without serum and were covered by a minimum volume containing a dilution of virus, this dilution being determined from the infectious titre (cf. section on determination of the infectious titre), in order to obtain an adequate multiplicity of infection (MOI). After incubation for one hour in the presence of a minimum volume, the medium was replaced by the medium DMEM 4.5 g/l of glucose, supplemented by L-glutamine and penicillin/streptomycin and 2% inactivated foetal calf serum, and the cells were incubated again at 37° C., 5% CO2.
The determination of the infectious titre was performed using a limited dilution technique, on these Vero E6 cells on a 96-well plate. A volume of 50 µl of series dilutions was deposited in the wells in quadruplicates. The cells were then incubated at 37° C., 5% CO2 and the presence of cytopathic effects is then monitored after 3 days of infection. The infectious dose in tissue culture 50% (DICT50/ ml), i.e. the viral titre required to form an infection in 50% of inoculated cells, was calculated using the technique of Reed and Muench.
Vero E6 cells infected by SARS-CoV-2 (MOI 0.1) were treated at one hour post-infection by increasing concentrations of: • diltiazem (2.8 to 45 µM), • berberine (1.6 to 25 µM), and • remdesivir (0.6 to 10 µM), alone (FIG. 1) and in combination (FIG. 2).
For each of the combined treatments tested, a dose of one of the molecules was fixed and combined with increasing concentrations of the other molecule (same concentration ranges as those used in monotherapy, respectively) and vice versa. The viral infectious titres measured in the culture supernatants of the infected cells (sampled at 48 and 72 hours post-infection) reflect the level of viral replication measured under the various treatment conditions.

The nature of series [2]: Cytotoxicity (CC50) on A549-ACE2 cells, MTS test. Type of series: cell-based. Particulars: human, 72 hours of treatment, read-out: CC50 (cytotoxic concentration 50%). Here is the method:
In parallel, the cytotoxicity of diltiazem on A549-ACE2 cells has been verified under the same experimental conditions. For this purpose, the CC50 (cytotoxic concentration 50%), which corresponds to the necessary dose of diltiazem in order to reduce the viability of the cells by half, was measured by monitoring the viability of the A549-ACE2 cells in the presence of various concentrations of diltiazem. The variability was determined by an MTS carried out 72 hours after the start of the treatment.
The MTS test is a colorimetric method: the method is based on the reduction of the compound MTS tetrazolium by viable cells in order to generate a coloured formazan product, enabling the counting of viable cells (coloured) […].
(Tetrazolium assays rely on reduction of a dye to a coloured formazan, in cell work by metabolically active cells.)

Series [3] deals with SARS-CoV-2 virus. In words: Reconstituted human respiratory epithelium of nasal origin (MucilAir HAE) infected with SARS-CoV-2, viral genome RT-PCR. Type of series: cell-based. Particulars: alone or combined. As to the method: In order to produce the infections, we have also used a reconstituted human epithelium model (HAE MucilAir, Epithelix), obtained from primary human cells obtained by nasal biopsies, cultivated at the air-liquid interface with a specific culture medium in Costar Transwell inserts (Corning, NY, USA). For the infection experiments, the apical poles were gently washed twice using the medium OptiMEM (Gibco, ThermoFisher Scientific), then infected with 150 µl of virus dilution in medium OptiMEM, with a multiplicity of infection (MOI) of 0.1. After incubation for one hour at 37° C., 5% CO2, the viral suspension was withdrawn.
A quantitative “one-step” PCR was performed using the StepOnePlus Real Time PCR System kit (Applied Biosystems), with the reagent EXPRESS One-Step Superscript qRT-PCR (Invitrogen), in a reaction volume of 20 µl containing 10 µl of supermix Express qPCR (2×), 1 µl of each primer (10 µM), […], 0.4 µl Rox dye (25 µM) and 2 µl of viral RNA.
The following program was used: 15 minutes at 50° C., followed by 40 cycles (15 s 95° C.; 1 min 60° C.).
Reconstituted human respiratory epithelia of nasal origin and cultivated at the air-liquid interface (MucilAir® HAE, Epithelix) were infected with SARS-CoV-2 (MOI 0.1). The basal medium was treated once per day by the following molecules, in simple or combination treatment: • diltiazem (45 or 90 µM), • remdesivir (20 or 40 µM) and • berberine (4 µM) for 48 or 72 hours post-infection.
At various times, the epithelia were harvested and lysed. The total RNA was extracted and the viral genomes were quantified by RT-PCR by normalising the data using the quantification of the product of a cellular gene (GAPDH).

The test system of series [4] is SARS-CoV-2 (Wuhan-like strain). In words: A549-ACE2 cells infected with SARS-CoV-2, viral titre in supernatant over time by RT-PCR. Type of series: cell-based. Particulars: A549-ACE2, MOI 10^-1 and 10^-2, single treatment 1 hpi, diltiazem 45 µM or remdesivir 5 µM, 24-96 hpi. The source says: The cells of the cell line A549 are human alveolar basal epithelial cells derived from adenocarcinoma. This cell line is used as a model for the study of lung cancer, but also as target cells for infectious viruses targeting the respiratory tract. These cells were subsequently modified to express the ACE2 receptor, via which the SARS-CoV-2 virus penetrates into the hosts cells. This cell line A549-ACE2 was obtained from Creative Biogene (USA).
The experimental protocol is the following: • Seeding of the A549-ACE2 cells, • 24 hours after infection of the A549-ACE2 cells with a Wuhan-like strain of SARS-CoV-2 (MOI 10^-1 and 10^-2), • 1 hour post infection (pi), the cells are treated with 45 uM diltiazem. • The supernatants are sampled at 24 hours, 48 hours, 72 hours and 96 hours after the infection for a viral quantification by RT-PCR.
The incubation media used are the following: • Seeding medium: DMEM 1 g/L glucose (Glc), 200 mM L-Glutamine (L-Glu), […] penicillin/streptomycin (P/S), 10% foetal calf serum (FCS) • Infection medium: DMEM 1 g/L Glc, 200 mM L-Glu, 104 U P/S, 0% FCS • Treatment medium: DMEM 1 g/L Glc, 200 mM L-Glu, 104 U P/S, 2% FCS

Series [5] relates to SARS-CoV-2 (Wuhan-like strain). In words: IC50 of diltiazem on SARS-CoV-2 in A549-ACE2 cells, RT-PCR. It counts as cell-based. As to conditions: Severe acute respiratory syndrome coronavirus 2; A549-ACE2, MOI 10^-1, treated 1 hpi, 72 hours after infection. Here is the method:
The experimental protocol is the following: • Seeding of the A549-ACE2 cells, • 24 hours after infection of A549-ACE2 cells with a Wuhan-like strain of SARS-CoV-2 (MOI 10^-1), • 1 hour post infection (pi), the cells are treated with diltiazem at different concentrations. • The supernatants are sampled at 72 hours after the infection for a viral quantification by RT-PCR.
The IC50 is the median inhibitory concentration, i.e. the quantity of diltiazem necessary to obtain 50% inhibition of the viral replication of the tested SARS-CoV-2 strain.

Series [6] deals with coronavirus SARS-CoV-2. Type of series: cell-based.
The conditions of series [7]: cited from earlier work.
Where [8] appears, read: Severe acute respiratory syndrome coronavirus 2, Vero C1008, Vero E6, MOI 0.01, 48 hpi, read-out: IC50.
Setting [9] is: Severe acute respiratory syndrome coronavirus 2, Vero C1008, Vero E6, MOI 0.01, 72 hpi, read-out: IC50.
The mark [10] stands for this setting: MOI 0.1, 48 hpi, remdesivir 20 µM, diltiazem 90 µM, berberine 4 µM.
The mark [11] stands for this setting: MOI 0.1, 72 hpi, remdesivir 20 µM, diltiazem 90 µM.
[12] abbreviates: MOI 0.1, 72 hpi, remdesivir 40 µM, diltiazem 45 µM.

On to `COc1ccc([C@@H]2Sc3ccccc3N(CCN(C)C)C(=O)[C@@H]2OC(C)=O)cc1.Cl` [Diltiazem, diltiazem], for which the IC50 (commonly the concentration at which inhibition is half-maximal) in series [1] (setting [8]) was greater than 45 µM; in series [1] (setting [9]), greater than 45 µM; in series [5] it was 19.7 µM. For the same compound, the CC50 at 72 h in series [2] was 374 µM. Also, the “Reduction Relative viral production (%)” value in series [3] (setting [10]) is reported as 55.13%; in series [3] (setting [11]), 29.37%; in series [3] (setting [12]) it was 31.35%. Further, the “Reduction Relative viral production (-log10)” value in series [3] (setting [10]) is 0.35 -log10 and 0.348 -log10; in series [3] (setting [11]), 0.15 -log10 and 0.151 -log10; in series [3] (setting [12]), 0.16 -log10 and 0.1634 -log10. Moreover, in series [4], the “Inhibition of the viral titre in the supernatant over time (% of untreated)” value is reported as “same level of inhibition of the viral titre”.
Regarding `O=c1cc(-c2ccc(O)cc2)oc2cc(O)cc(O)c12` [apigenin], in series [6], the “Antiviral action against coronavirus SARS-CoV-2” value was “does not have a significant antiviral action”.
Turning to `COc1ccc2cc3[n+](cc2c1OC)CCc1cc2c(cc1-3)OCO2` [Berberine, berberine], the IC50 in series [1] (Severe acute respiratory syndrome coronavirus 2, Vero C1008, Vero E6, MOI 0.01, 48 hpi) came to 17.5 µM. In series [1] (Severe acute respiratory syndrome coronavirus 2, Vero C1008, Vero E6, MOI 0.01, 72 hpi), the IC50 was less than 5.6 µM. Moreover, the IC50 in series [1] (Vero E6, MOI 0.01, 72 hpi, read-out: IC50) was 5.6 ± 1.7 µM. Also, in series [7], the bioavailability result was “low” and the half-life – broadly, the time in which the quantity being followed falls by half – is roughly 4 h. For the same compound, in series [3] (setting [10]), the “Reduction Relative viral production (%)” value stood at 86.37%; the “Reduction Relative viral production (-log10)” value is 0.86 -log10 and 0.8655 -log10.
Consider `CCC(CC)COC(=O)[C@H](C)N[P@](=O)(OC[C@H]1O[C@@](C#N)(c2ccc3c(N)ncnn23)[C@H](O)[C@@H]1O)Oc1ccccc1` [Remdesivir, remdesivir], for which the IC50 was determined as 0.98 µM in series [1] (setting [8]) and 0.72 µM in series [1] (setting [9]). In addition, the “Reduction Relative viral production (%)” value in series [3] (setting [10]) was determined as 100%; in series [3] (setting [11]), 99.62%; in series [3] (setting [12]), 99.5%. Besides, the “Reduction Relative viral production (-log10)” value in series [3] (setting [10]) is “more than 7.75 -log10”; in series [3] (MOI 0.1, 48 hpi, remdesivir 20 µM, diltiazem 90 µM, berberine 4 µM, listed as remdesivir) it was 7.351 -log10; in series [3] (setting [12]) it was 2.3 -log10 and 2.24 -log10.
